# Results reported in patent US9980486B2, “Herbicidal quinolines” (Syngenta Participations AG, priority 2014, dated 2018).
# How the values were obtained:
# Assay in all cases: Experiment B1 glasshouse herbicide test, pre- and post-emergence, percentage damage
# Assay type in all cases: in vivo
# Conditions in all cases: evaluated after 13 days
# [1] = system: Echinochloa crus-galli (ECHCG)
# Description: (§1) Seeds of a variety of test species are sown in standard soil in pots (Lolium perenne (LOLPE), Solanum nigrum (SOLNI), Amaranthus retoflexus (AMARE), Setaria faberi (SETFA), Echinochloa crus-galli (ECHCG), Ipomoea hederacea (IPOHE)). After cultivation for one day (pre-emergence) or after 8 days cultivation (post-emergence) under controlled conditions in a glasshouse (at 24/16° C., day/night; 14 hours light; 65% humidity), the plants are sprayed with an aqueous spray solution derived from the formulation of the technical active ingredient in acetone/water (50:50) solution containing 0.5% Tween 20 (polyoxyethelyene sorbitan monolaurate, CAS RN 9005-64-5). […] The test plants are then grown in a glasshouse under controlled conditions in a glasshouse (at 24/16° C., day/night; 14 hours light; 65% humidity) and watered twice daily. After 13 days for pre and post-emergence, the test is evaluated for the percentage damage caused to the plant. The biological activities are shown in the following table on a five point scale (5=80-100%; 4=60-79%; 3=40-59%; 2=20-39%; 1=0-19%).
# [2] = system: Ipomoea hederacea (IPOHE)
# Description: as §1
# [3] = system: Amaranthus retoflexus (AMARE)
# Description: as §1
# Solanum nigrum (SOLNI) = system: Solanum nigrum (SOLNI)
# Description: as §1
# Setaria faberi (SETFA) = system: Setaria faberi (SETFA)
# Description: as §1
# Lolium perenne (LOLPE) = system: Lolium perenne (LOLPE)
# Description: as §1
# [4] = POST Application (post-emergence, after 8 days cultivation), 1000 g/h
# [5] = PRE Application (pre-emergence, after cultivation for one day), 1000 g/h
# [6] = POST Application (post-emergence), applied at 250 g/ha
# [7] = PRE Application (pre-emergence), applied at 250 g/ha
Compound,"percentage damage caused to the plant, five point scale, ECHCG [1, 4]","percentage damage caused to the plant, five point scale, ECHCG [1, 5]","percentage damage caused to the plant, five point scale, IPOHE [2, 4]","percentage damage caused to the plant, five point scale, IPOHE [2, 5]","percentage damage caused to the plant, five point scale, AMARE [3, 4]","percentage damage caused to the plant, five point scale, AMARE [3, 5]","percentage damage caused to the plant, five point scale, SOLNI (Solanum nigrum (SOLNI); [4])","percentage damage caused to the plant, five point scale, SOLNI (Solanum nigrum (SOLNI); [5])","percentage damage caused to the plant, five point scale, SETFA (Setaria faberi (SETFA); [4])","percentage damage caused to the plant, five point scale, SETFA (Setaria faberi (SETFA); [5])","percentage damage caused to the plant, five point scale, LOLPE (Lolium perenne (LOLPE); [4])","percentage damage caused to the plant, five point scale, LOLPE (Lolium perenne (LOLPE); [5])",further results
CCn1nnnc1NC(=O)c1cc2cccnc2c(-c2ccccc2)c1C(F)(F)F [Compound 1.002],5 (5=80-100%),5 (5=80-100%),5 (5=80-100%),5 (5=80-100%),5 (5=80-100%),5 (5=80-100%),5 (5=80-100%),5 (5=80-100%),5 (5=80-100%),5 (5=80-100%),5 (5=80-100%),5 (5=80-100%),
CCCn1nnnc1NC(=O)c1cc2cccnc2c(-c2ccccc2)c1C(F)(F)F [Compound 1.003],3 (3=40-59%),5 (5=80-100%),4 (4=60-79%),2 (2=20-39%),5 (5=80-100%),5 (5=80-100%),5 (5=80-100%),5 (5=80-100%),2 (2=20-39%),1 (1=0-19%),1 (1=0-19%),1 (1=0-19%),
"Cn1nnnc1NC(=O)c1cc2cc(F)cnc2c(-c2ccccc2)c1C(F)(F)F [Compound 1.007, 3-fluoro-N-(1-methyltetrazol-5-yl)-8-phenyl-7-(trifluoromethyl)quinoline-6-carboxamide]",5 (5=80-100%),5 (5=80-100%),5 (5=80-100%),5 (5=80-100%),5 (5=80-100%),5 (5=80-100%),5 (5=80-100%),5 (5=80-100%),5 (5=80-100%),5 (5=80-100%),5 (5=80-100%),5 (5=80-100%),
"COc1c(C(=O)Nc2nnnn2C)cc2cccnc2c1-c1ccccc1 [Compound 1.009, 7-methoxy-N-(1-methyltetrazol-5-yl)-8-phenyl-quinoline-6-carboxamide]",5 (5=80-100%),5 (5=80-100%),5 (5=80-100%),5 (5=80-100%),5 (5=80-100%),5 (5=80-100%),5 (5=80-100%),5 (5=80-100%),5 (5=80-100%),5 (5=80-100%),4 (4=60-79%),5 (5=80-100%),
"Cn1nnnc1NC(=O)c1cc2cccnc2c(-c2ccccc2)c1S(C)(=O)=O [Compound 1.010, 7-METHYLSULFONYL-N-(1-METHYLTETRAZOL-5-YL)-8-PHENYL-QUINOLINE-6-CARBOXAMIDE]",,,,,,,,,,,,,"percentage damage caused to the plant, five point scale, ECHCG [1, 6]: 5 (5=80-100%); percentage damage caused to the plant, five point scale, ECHCG [1, 7]: 5 (5=80-100%); percentage damage caused to the plant, five point scale, IPOHE [2, 6]: 5 (5=80-100%); percentage damage caused to the plant, five point scale, IPOHE [2, 7]: 4 (4=60-79%); percentage damage caused to the plant, five point scale, AMARE [3, 6]: 5 (5=80-100%); percentage damage caused to the plant, five point scale, AMARE [3, 7]: 5 (5=80-100%); percentage damage caused to the plant, five point scale, SOLNI (Solanum nigrum (SOLNI); [6]): 5 (5=80-100%); percentage damage caused to the plant, five point scale, SOLNI (Solanum nigrum (SOLNI); [7]): 5 (5=80-100%); percentage damage caused to the plant, five point scale, SETFA (Setaria faberi (SETFA); [6]): 5 (5=80-100%); percentage damage caused to the plant, five point scale, SETFA (Setaria faberi (SETFA); [7]): 2 (2=20-39%); percentage damage caused to the plant, five point scale, LOLPE (Lolium perenne (LOLPE); [6]): 4 (4=60-79%); percentage damage caused to the plant, five point scale, LOLPE (Lolium perenne (LOLPE); [7]): 2 (2=20-39%)"
"Cn1nnnc1NC(=O)c1cc2cccnc2c(-c2ccccc2)c1Cl [Compound 1.011, 7-chloro-N-(1-methyltetrazol-5-yl)-8-phenyl-quinoline-6-carboxamide]",5 (5=80-100%),5 (5=80-100%),5 (5=80-100%),5 (5=80-100%),5 (5=80-100%),5 (5=80-100%),5 (5=80-100%),5 (5=80-100%),5 (5=80-100%),5 (5=80-100%),5 (5=80-100%),5 (5=80-100%),
Cc1ccc(-c2c(C(F)(F)F)c(C(=O)Nc3nnnn3C)cc3cccnc23)cc1 [Compound 1.017],5 (5=80-100%),5 (5=80-100%),5 (5=80-100%),5 (5=80-100%),5 (5=80-100%),5 (5=80-100%),5 (5=80-100%),5 (5=80-100%),5 (5=80-100%),5 (5=80-100%),4 (4=60-79%),4 (4=60-79%),
"CSc1ccc(-c2c(C)c(C(=O)Nc3nnnn3C)cc3cccnc23)cc1 [Compound 1.030, 7-methyl-8-(4-methylsulfanylphenyl)-N-(1-methyltetrazol-5-yl)quinoline-6-carboxamide]",5 (5=80-100%),5 (5=80-100%),5 (5=80-100%),4 (4=60-79%),5 (5=80-100%),5 (5=80-100%),5 (5=80-100%),5 (5=80-100%),5 (5=80-100%),5 (5=80-100%),4 (4=60-79%),4 (4=60-79%),
"Cc1c(C(=O)Nc2nnnn2C)cc2cccnc2c1-c1ccc(S(C)(=O)=O)cc1 [Compound 1.031, 7-methyl-8-(4-methylsulfonylphenyl)-N-(1-methyltetrazol-5-yl)quinoline-6-carboxamide]",5 (5=80-100%),5 (5=80-100%),5 (5=80-100%),5 (5=80-100%),5 (5=80-100%),5 (5=80-100%),5 (5=80-100%),5 (5=80-100%),5 (5=80-100%),5 (5=80-100%),5 (5=80-100%),5 (5=80-100%),
"CSc1c(C(=O)Nc2nnnn2C)cc2cccnc2c1-c1ccccc1 [Compound 1.032, 7-methylsulfanyl-N-(1-methyltetrazol-5-yl)-8-phenyl-quinoline-6-carboxamide]",5 (5=80-100%),5 (5=80-100%),5 (5=80-100%),5 (5=80-100%),5 (5=80-100%),5 (5=80-100%),5 (5=80-100%),5 (5=80-100%),5 (5=80-100%),5 (5=80-100%),5 (5=80-100%),5 (5=80-100%),
